From PubChem BioAssay (NCI)
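Five compound concentrations were applied to cells in 96-well plates for 48 hours; endpoints were derived by simple linear interpolation of the resulting dose-response curve. Abbreviation: GI50, concentration required for 50% inhibition of growth. TGI marks complete inhibition of growth.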

Assays:
Assay in all cases: NCI-60 cell line screen, 48 h
ACHN renal = tested on: ACHN renal
CAKI-1 renal = tested on: CAKI-1 renal
HCC-2998 colon = tested on: HCC-2998 colon
HOP-62 NSCLC = tested on: HOP-62 NSCLC
M14 melanoma = tested on: M14 melanoma
OVCAR-3 ovarian = tested on: OVCAR-3 ovarian
SF-295 CNS = tested on: SF-295 CNS
SK-MEL-5 melanoma = tested on: SK-MEL-5 melanoma
SW-620 colon = tested on: SW-620 colon
HS 578T breast = tested on: HS 578T breast

CN(C)CCNC(=O)c1cccc2nc3ccc4cccnc4c3nc12
TGI (ACHN renal): 3.27 µM
TGI (CAKI-1 renal): 6.37 µM
TGI (HCC-2998 colon): 2.12 µM
TGI (HOP-62 NSCLC): 1.86 µM
TGI (M14 melanoma): 3.03 µM
TGI (OVCAR-3 ovarian): 4.33 µM
TGI (SF-295 CNS): 3.94 µM
TGI (SK-MEL-5 melanoma): 1.33 µM
TGI (SW-620 colon): 4.92 µM

O=C1NC(=O)C(=Cc2c3ccccc3cc3ccccc23)C(=O)N1
TGI (ACHN renal): > 100 µM
TGI (CAKI-1 renal): > 100 µM
TGI (HOP-62 NSCLC): > 100 µM
TGI (M14 melanoma): > 100 µM
TGI (SK-MEL-5 melanoma): > 100 µM
TGI (SW-620 colon): > 100 µM

CC(C)=O.O=C([O-])C(F)(F)F.O=C([O-])C(F)(F)F.O=C([O-])C(F)(F)F.O=C([O-])C(F)(F)F.[Rh+2].[Rh+2]
GI50 (ACHN renal): 50.5 µM
TGI (ACHN renal): > 100 µM
GI50 (HCC-2998 colon): > 100 µM
TGI (HCC-2998 colon): > 100 µM
GI50 (HOP-62 NSCLC): > 100 µM
TGI (HOP-62 NSCLC): > 100 µM
GI50 (M14 melanoma): > 100 µM
TGI (M14 melanoma): > 100 µM
GI50 (OVCAR-3 ovarian): > 100 µM
TGI (OVCAR-3 ovarian): > 100 µM
GI50 (SF-295 CNS): > 100 µM
TGI (SF-295 CNS): > 100 µM
GI50 (SK-MEL-5 melanoma): > 100 µM
TGI (SK-MEL-5 melanoma): > 100 µM
GI50 (SW-620 colon): 65.2 µM
TGI (SW-620 colon): > 100 µM

CC(C)(CN1CCOCC1)C(=O)/C=C/c1ccc(/C=C/C(=O)C(C)(C)CN2CCOCC2)cc1
TGI (ACHN renal): 4.92 µM
TGI (CAKI-1 renal): 3.78 µM
TGI (HCC-2998 colon): 3.26 µM
TGI (HOP-62 NSCLC): 4.79 µM
TGI (OVCAR-3 ovarian): 2.46 µM
TGI (SF-295 CNS): 4.63 µM
TGI (SK-MEL-5 melanoma): 3.23 µM

COc1ccc2c3c(c(C(=O)O)oc13)CCC2
TGI (ACHN renal): > 100 µM
TGI (HCC-2998 colon): > 100 µM
TGI (HOP-62 NSCLC): > 100 µM
TGI (M14 melanoma): > 100 µM
TGI (OVCAR-3 ovarian): > 100 µM
TGI (SF-295 CNS): > 100 µM
TGI (SK-MEL-5 melanoma): > 100 µM
TGI (SW-620 colon): > 100 µM

S=c1nc(C(c2ccccc2)c2ccccc2)[nH][nH]1
TGI (ACHN renal): > 100 µM
TGI (HCC-2998 colon): > 100 µM
TGI (HOP-62 NSCLC): > 100 µM
TGI (OVCAR-3 ovarian): > 100 µM
TGI (SF-295 CNS): > 100 µM
TGI (SK-MEL-5 melanoma): > 100 µM
TGI (SW-620 colon): > 100 µM

Cc1cc(C)nc(NS(=O)(=O)c2ccc(Nc3c4ccccc4nc4c(C(=O)Nc5ccc(S(=O)(=O)Nc6cc(C)on6)cc5)ccc(Cl)c34)cc2)n1
TGI (ACHN renal): > 100 µM
TGI (HCC-2998 colon): 32.6 µM
TGI (HOP-62 NSCLC): 42.5 µM
TGI (M14 melanoma): 44 µM
TGI (OVCAR-3 ovarian): 31.3 µM
TGI (SF-295 CNS): 44.8 µM

CC(N)Cc1ccc(Cl)cc1 (stereo not given)
TGI (ACHN renal): > 100 µM
TGI (CAKI-1 renal): > 100 µM
TGI (HCC-2998 colon): > 100 µM
TGI (HOP-62 NSCLC): > 100 µM
TGI (M14 melanoma): > 100 µM
TGI (OVCAR-3 ovarian): > 100 µM
TGI (SF-295 CNS): > 100 µM
TGI (SK-MEL-5 melanoma): > 100 µM
TGI (SW-620 colon): > 100 µM

Cc1cc(Br)cc(C)c1NC(=O)C(=O)C(C(=O)c1ccncc1)C1OC(=O)c2ccccc21 (stereo not given)
TGI (ACHN renal): > 100 µM
TGI (CAKI-1 renal): > 100 µM
TGI (HCC-2998 colon): > 100 µM
TGI (HOP-62 NSCLC): > 100 µM
TGI (M14 melanoma): > 100 µM
TGI (OVCAR-3 ovarian): > 100 µM
TGI (SW-620 colon): > 100 µM

COc1cc2c(c(O)c1C)C(=O)CC(c1ccccc1)O2 (stereo not given)
TGI (ACHN renal): > 100 µM
TGI (CAKI-1 renal): > 100 µM
TGI (HCC-2998 colon): > 100 µM
TGI (HOP-62 NSCLC): > 100 µM
TGI (M14 melanoma): > 10 µM
TGI (OVCAR-3 ovarian): > 100 µM
TGI (SF-295 CNS): > 10 µM
TGI (SK-MEL-5 melanoma): 37.2 µM
TGI (SW-620 colon): > 10 µM

Cc1ccc2[nH]c3c(c2c1)N=c1ccccc1=NO3
GI50 (ACHN renal): 32.3 µM
TGI (ACHN renal): > 100 µM
GI50 (CAKI-1 renal): 10.5 µM
TGI (CAKI-1 renal): 47.6 µM
GI50 (HCC-2998 colon): 81.7 µM
TGI (HCC-2998 colon): > 100 µM
GI50 (M14 melanoma): 48 µM
TGI (M14 melanoma): > 100 µM
GI50 (OVCAR-3 ovarian): 25.8 µM
TGI (OVCAR-3 ovarian): > 100 µM
GI50 (SF-295 CNS): 23.8 µM
TGI (SF-295 CNS): 84.9 µM
GI50 (SK-MEL-5 melanoma): 40.9 µM
TGI (SK-MEL-5 melanoma): > 100 µM
GI50 (SW-620 colon): > 100 µM
TGI (SW-620 colon): > 100 µM

c1ccc2cc(Cn3cc[n+](Cc4ccc5ccccc5c4)c3)ccc2c1
GI50 (ACHN renal): 13.7 µM
TGI (ACHN renal): 27.6 µM
GI50 (HCC-2998 colon): 1.05 µM
TGI (HCC-2998 colon): 4.38 µM
GI50 (HOP-62 NSCLC): 3.26 µM
TGI (HOP-62 NSCLC): 17 µM
GI50 (HS 578T breast): 1.28 µM
TGI (HS 578T breast): 8.97 µM
GI50 (M14 melanoma): 1.43 µM
TGI (M14 melanoma): 8.34 µM
GI50 (OVCAR-3 ovarian): 0.675 µM
TGI (OVCAR-3 ovarian): 2.18 µM
GI50 (SF-295 CNS): 3.65 µM
TGI (SF-295 CNS): 19.6 µM
GI50 (SK-MEL-5 melanoma): 0.258 µM
TGI (SK-MEL-5 melanoma): 0.916 µM
GI50 (SW-620 colon): 2.05 µM
TGI (SW-620 colon): 13.6 µM

CCC[CH2][Sn]([CH2]CCC)([CH2]CCC)[O]C(=O)C(OC(C)=O)c1ccccc1 (stereo not given)
GI50 (ACHN renal): 0.143 µM
TGI (ACHN renal): 0.274 µM
GI50 (CAKI-1 renal): 0.159 µM
TGI (CAKI-1 renal): 0.3 µM
GI50 (HCC-2998 colon): 0.0999 µM
TGI (HCC-2998 colon): 0.216 µM
GI50 (HOP-62 NSCLC): 0.149 µM
TGI (HOP-62 NSCLC): 0.287 µM
GI50 (M14 melanoma): 0.138 µM
TGI (M14 melanoma): 0.267 µM
GI50 (OVCAR-3 ovarian): 0.137 µM
TGI (OVCAR-3 ovarian): 0.274 µM
GI50 (SF-295 CNS): 0.163 µM
TGI (SF-295 CNS): 0.301 µM
GI50 (SK-MEL-5 melanoma): 0.147 µM
TGI (SK-MEL-5 melanoma): 0.28 µM
GI50 (SW-620 colon): 0.141 µM
TGI (SW-620 colon): 0.273 µM

COc1cccc2c1C(=O)c1c(O)c3c(c(O)c1C2=O)C[C@@](O)(C(C)=O)C[C@@H]3OC1CC([N+]([O-])(Cc2ccccc2)Cc2ccccc2)C(O)C(C)O1 (stereo not given in full)
TGI (ACHN renal): 2.73 µM
TGI (CAKI-1 renal): 2.47 µM
TGI (HCC-2998 colon): 3.07 µM
TGI (HOP-62 NSCLC): 2.98 µM
TGI (M14 melanoma): 3.07 µM
TGI (OVCAR-3 ovarian): 3.28 µM
TGI (SF-295 CNS): 2.88 µM
TGI (SK-MEL-5 melanoma): 2.71 µM
TGI (SW-620 colon): 2.54 µM

NCCOCn1cc(Cc2cccc(OCc3ccccc3)c2)c(=O)[nH]c1=O
TGI (HCC-2998 colon): > 100 µM
TGI (M14 melanoma): > 100 µM
TGI (OVCAR-3 ovarian): > 100 µM
TGI (SF-295 CNS): > 100 µM
TGI (SK-MEL-5 melanoma): > 100 µM
TGI (SW-620 colon): > 100 µM

O=C1OC(c2ccccc2)(c2ccccc2)c2ccc3ccc(F)cc3c21
TGI (ACHN renal): > 100 µM
TGI (CAKI-1 renal): > 100 µM
TGI (HCC-2998 colon): > 100 µM
TGI (HOP-62 NSCLC): > 100 µM
TGI (M14 melanoma): > 100 µM
TGI (OVCAR-3 ovarian): > 100 µM
TGI (SF-295 CNS): > 100 µM
TGI (SK-MEL-5 melanoma): > 100 µM
TGI (SW-620 colon): > 100 µM

CCn1c(-c2c(Cl)cc(O)cc2Cl)cc2c(Cl)cc(O)cc21
TGI (ACHN renal): 16.9 µM
TGI (CAKI-1 renal): 30.5 µM
TGI (HOP-62 NSCLC): 31.5 µM
TGI (HS 578T breast): > 100 µM
TGI (M14 melanoma): 91.5 µM
TGI (OVCAR-3 ovarian): 97 µM
TGI (SF-295 CNS): 19.8 µM
TGI (SK-MEL-5 melanoma): 12.5 µM
TGI (SW-620 colon): 41 µM

O=C1C=CC(=O)C2C1Cc1ccccc1C2c1ccccc1 (stereo not given)
TGI (ACHN renal): > 100 µM
TGI (CAKI-1 renal): > 100 µM
TGI (HCC-2998 colon): 60 µM
TGI (HOP-62 NSCLC): > 100 µM
TGI (M14 melanoma): > 100 µM
TGI (OVCAR-3 ovarian): 88.3 µM
TGI (SF-295 CNS): > 100 µM
TGI (SK-MEL-5 melanoma): > 100 µM
TGI (SW-620 colon): 71 µM

O=S(=O)(c1ccccc1)c1nccs1
TGI (ACHN renal): > 100 µM
TGI (CAKI-1 renal): > 100 µM
TGI (HCC-2998 colon): > 100 µM
TGI (HOP-62 NSCLC): > 100 µM
TGI (M14 melanoma): > 100 µM
TGI (OVCAR-3 ovarian): > 100 µM
TGI (SF-295 CNS): > 100 µM
TGI (SK-MEL-5 melanoma): > 100 µM
TGI (SW-620 colon): > 100 µM

CCCCC[C@H]1CC=C2C(=O)C=C[C@@H]2CC=CCCCC(=O)O[C@@H](CCCCC)CC=C2C(=O)C=C[C@@H]2CC=CCCCC(=O)O[C@@H](CCCCC)CC=C2C(=O)C=C[C@@H]2CC=CCCCC(=O)O1
GI50 (ACHN renal): 0.438 µM
TGI (ACHN renal): > 8.75 µM
GI50 (HCC-2998 colon): 0.264 µM
TGI (HCC-2998 colon): 0.888 µM
GI50 (HOP-62 NSCLC): 0.259 µM
TGI (HOP-62 NSCLC): 0.775 µM
GI50 (HS 578T breast): 0.773 µM
TGI (HS 578T breast): > 8.75 µM
GI50 (M14 melanoma): 0.279 µM
TGI (M14 melanoma): 1.79 µM
GI50 (OVCAR-3 ovarian): 0.192 µM
TGI (OVCAR-3 ovarian): 0.532 µM
GI50 (SF-295 CNS): 0.432 µM
TGI (SF-295 CNS): 5.13 µM
GI50 (SK-MEL-5 melanoma): 0.737 µM
TGI (SK-MEL-5 melanoma): 1.87 µM
GI50 (SW-620 colon): 0.373 µM
TGI (SW-620 colon): 1.51 µM
